Assay results reported in patent US20110098352A1, “N,N-DISUBSTITUTED AMINOALKYLBIPHENYL ANTAGONISTS OF PROSTAGLANDIN D2 RECEPTORS” (AMIRA PHARMACEUTICALS, INC., priority 2008, published 2011).
pIC50: −log10 of the molar value. Read-outs that look alike come from different tables or passages of the source.

Experiments:
human DP1 receptor = molecular target: T1, human DP1 receptor (Homo sapiens, UniProt Q13258); assay: DP1 radioligand membrane binding assay using [3H]BWA868C; details: [3H]BWA868C binding, human platelet membranes; read-out: hDP1
T1 construct: tissue Biological Specialty Corporation; host or cells: human platelets, membranes
T1 sequence (Q13258 1-359): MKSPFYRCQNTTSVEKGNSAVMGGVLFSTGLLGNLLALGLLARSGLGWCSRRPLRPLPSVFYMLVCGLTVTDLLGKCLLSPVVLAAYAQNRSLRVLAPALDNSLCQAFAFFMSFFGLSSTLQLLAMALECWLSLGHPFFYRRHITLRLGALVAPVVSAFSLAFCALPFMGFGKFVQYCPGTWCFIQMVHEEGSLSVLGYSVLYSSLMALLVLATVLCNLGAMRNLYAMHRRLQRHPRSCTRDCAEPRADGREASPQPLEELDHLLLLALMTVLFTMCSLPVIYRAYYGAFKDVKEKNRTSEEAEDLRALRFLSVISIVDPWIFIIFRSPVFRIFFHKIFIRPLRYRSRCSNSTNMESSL
Description: The ability of a compound to bind to the human DP1 receptor was evaluated via a radioligand membrane binding assay using the DP1 selective synthetic ligand [^3H]BWA868C. Packed human platelets (Biological Specialty Corporation), were resuspended in 6 volumes of Hepes/HBSS buffer (10 mM Hepes, 1 mM DTT in Hanks Balanced Salt Solution (HBSS)), lysed and centrifuged at 75,000×g to pellet the membranes. Membranes were resuspended in Hepes/HBSS buffer to approximately 12 mg protein/ml. Membranes (20 μg protein/well) are incubated in 96-well plates with 2 nM [^3H]BWA868C and test compound in Assay Buffer (50 mM Hepes, 10 mM MnCl2, 1 mM EDTA, plus or minus 0.2% human serum albumin, pH 7.4) for 60 minutes at room temperature. The reactions are terminated by rapid filtration through Whatman GF/C glass fibre filter plates. The filter plates were pre-soaked in […] polethylenimine for 30 minutes at room temperature then washed in Wash Buffer (50 mM Hepes, 0.5 M NaCl pH 7.4) prior to harvesting. After harvesting, the filter plates are washed 3 times with 1 ml cold Wash Buffer then dried. Scintillant is then added to the plates and the radioactivity retained on the filters is determined on a Packard TopCount (Perkin Elmer). Specific binding is determined as total radioactive binding minus non-specific binding in the presence of 10 μM BWA868C. IC50s were determined using GraphPad prism analysis of drug titration curves.

[1] = molecular target: T2, recombinant human CRTH2 receptor (Homo sapiens, UniProt Q9Y5Y4); assay: GTPγS binding assay; format: biochemical; details: +HSA; CHO cell membranes, 80 nM PGD2; read-out: hDP2 GTPγS μM (+HSA)
T2 construct: expressed in transfected cells
T2 sequence (Q9Y5Y4 1-395): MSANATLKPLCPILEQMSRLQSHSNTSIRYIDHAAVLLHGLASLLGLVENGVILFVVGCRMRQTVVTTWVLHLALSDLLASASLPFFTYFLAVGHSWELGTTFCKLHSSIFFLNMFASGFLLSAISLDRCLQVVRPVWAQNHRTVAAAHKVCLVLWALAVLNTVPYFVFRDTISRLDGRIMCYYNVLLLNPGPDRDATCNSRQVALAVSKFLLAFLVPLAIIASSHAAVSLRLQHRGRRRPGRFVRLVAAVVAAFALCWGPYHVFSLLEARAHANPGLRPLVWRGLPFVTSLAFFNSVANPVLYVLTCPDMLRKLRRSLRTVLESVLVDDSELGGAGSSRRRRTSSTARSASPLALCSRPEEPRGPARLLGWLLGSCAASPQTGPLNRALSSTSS
Description: The ability of a compound to inhibit binding of GTP to DP2 is assessed via a membrane GTPγS assay. CHO cells stably expressing the recombinant human CRTH2 receptor are resuspended in 10 mM Hepes, 7.4 containing 1 mM DTT, lysed and centrifuged at 75,000×g to pellet the membranes. The membranes are resuspended in 10 mM Hepes, 7.4 containing 1 mM DTT and 10% glycerol. […] The reactions are terminated by rapid filtration through Whatman GF/B glass fibre filter plates. The filter plates are washed 3 times with 1 ml cold Assay Buffer and dried. Scintillant is then added to the plates and the radioactivity retained on the filters is determined on a Packard TopCount (Perkin Elmer). Specific binding is determined as total radioactive binding minus non-specific binding in the absence of the ligand (80 nM PGD2). IC50s were determined using Graphpad prism analysis of drug titration curves.

human DP2 receptor = molecular target: T3, human DP2 receptor (Homo sapiens, UniProt Q9Y5Y4); assay: DP2/CRTH2 radioligand binding assay using [3H]PGD2
T3 construct: expressed in transfected cells
T3 sequence (Q9Y5Y4 1-395): T2 sequence (Q9Y5Y4 1-395)
Description: The ability of a compound to bind to the human DP2 receptor is assessed via a radioligand binding assay using [^3H]PGD2. HEK293 cells stably expressing recombinant human DP2 are resuspended in 10 mM Hepes, 7.4 containing 1 mM DTT, lysed and centrifuged at 75,000×g to pellet the membranes. The membranes are resuspended in 10 mM Hepes, 7.4 containing 1 mM DTT and 10% glycerol to approximately 5 mg protein/ml. Membranes (2-10 μg protein/well) are incubated in 96-well plates with 1 nM [^3H]PGD2 and test compound in Assay Buffer (50 mM Hepes, 10 mM MnCl2, 1 mM EDTA, plus or minus 0.2% human serum albumin, pH 7.4) for 60 minutes at room temperature. The reactions are terminated by rapid filtration through Whatman GF/C glass fibre filter plates. The filter plates were pre-soaked in 0.33% polythylenimine for 30 minutes at room temperature then washed in Wash Buffer (50 mM Hepes, 0.5 M NaCl pH 7.4) prior to harvesting. After harvesting, the filter plates are washed 3 times with 1 ml cold Wash Buffer then dried. Scintillant is then added to the plates and the radioactivity retained on the filters is determined on a Packard TopCount (Perkin Elmer). Specific binding is determined as total radioactive binding minus non-specific binding in the presence of 10 μM PGD2. IC50s were determined using GraphPad prism analysis of drug titration curves.

[2] = [3H]PGD2 binding, membranes of HEK293 cells expressing recombinant human DP2, read-out: hDP2

Row | pIC50 (human DP1 receptor) | IC50 [1] [µM] | pIC50 (human DP2 receptor; [2]) | SMILES | pIC50 (human DP2 receptor)
1 | < 6.00 | < 0.3 | > 6.52 | CCOc1ccc(CC(=O)O)cc1-c1ccc(C(F)(F)F)cc1CN(CC)C(=O)OCc1ccccc1 [Compound 1-129] | 
2 | < 6.00 | < 0.3 | > 6.52 | COc1ccc(CC(=O)O)cc1-c1ccc(C(F)(F)F)cc1CN(C(C)=O)C1CCC1 [Compound 1-30, {2′-[(Acetyl-cyclobutyl-amino)-methyl]-6-methoxy-4′-trifluoromethyl-biphenyl-3-yl}-acetic acid] | 
3 | < 6.00 | < 0.3 | > 6.52 | CCN(Cc1cc(C(F)(F)F)ccc1-c1cc(CC(=O)O)ccc1OC)C(=O)OCc1ccccc1Cl [Compound 1-39, (2′-{[(2-Chloro-benzyloxycarbonyl)-ethyl-amino]-methyl}-6-methoxy-4′-trifluoromethyl-biphenyl-3-yl)-acetic acid] | 
4 | < 6.00 | < 0.3 | > 6.52 | CCN(Cc1cc(C(F)(F)F)ccc1-c1cc(CC(=O)O)ccc1OC)C(=O)OCc1cc(F)cc(F)c1 [Compound 1-40, (2′-{[(3,5-Difluoro-benzyloxycarbonyl)-ethyl-amino]-methyl}-6-methoxy-4′-trifluoromethyl-biphenyl-3-yl)-acetic acid] | 
5 | < 6.00 | < 0.3 | > 6.52 | CCN(Cc1ccccc1)C(=O)N(CC)Cc1cc(C(F)(F)F)ccc1-c1cc(CC(=O)O)ccc1OC [Compound 1-94, [2′-(3-Benzyl-1,3-diethyl-ureidomethyl)-6-methoxy-4′-trifluoromethyl-biphenyl-3-yl]-acetic acid] | 
6 | < 6.00 | < 0.3 | > 6.52 | CCN(Cc1cc(C(F)(F)F)ccc1-c1cc(CC(=O)O)ccc1OC)C(=O)OCc1ccc(Cl)cc1 [Compound 1-42, (2′-{[(4-Chloro-benzyloxycarbonyl)-ethyl-amino]-methyl}-6-methoxy-4′-trifluoromethyl-biphenyl-3-yl)-acetic acid] | 
7 |  | < 0.3 | > 6.52 | CCN(Cc1cc(C(F)(F)F)ccc1-c1cc(CC(=O)O)ccc1O)C(=O)NCc1ccccc1 [Compound 1-220, [2′-(3-Benzyl-1-ethyl-ureidomethyl)-6-hydroxy-4′-trifluoromethyl-biphenyl-3-yl]-acetic acid] | 
8 |  | < 0.3 | > 6.52 | CCN(Cc1cc(C(F)(F)F)ccc1-c1cc(CC(=O)O)ccc1OC)C(=O)C(C)C [Compound 1-246, {2′-[(Ethyl-isobutyryl-amino)-methyl]-6-methoxy-4′-trifluoromethyl-biphenyl-3-yl}-acetic acid] | 
9 | < 6.00 |  | > 6.52 | CCN(Cc1cc(C(F)(F)F)ccc1-c1cc(CC(=O)O)ccc1OC)C(=O)NCc1cc(Cl)cc(Cl)c1 [Compound 1-165, {2′-[3-(3,5-Dichloro-benzyl)-1-ethyl-ureidomethyl]-6-methoxy-4′-trifluoromethyl-biphenyl-3-yl}-acetic acid] | 
10 | < 6.00 |  | > 6.52 | CCN(Cc1cc(C(F)(F)F)ccc1-c1cc(CC(=O)O)ccc1OC)C(=O)NCc1cc(F)cc(F)c1 [Compound 1-178, {2′-[3-(3,5-Difluoro-benzyl)-1-ethyl-ureidomethyl]-6-methoxy-4′-trifluoromethyl-biphenyl-3-yl}-acetic acid] | 
11 | < 6.00 |  | > 6.52 | CCN(Cc1cc(C(F)(F)F)ccc1-c1cc(CC(=O)O)ccc1OC)C(=O)N[C@@H](C)c1ccc(Cl)cc1 [Compound 1-180, (2′-{3-[(S)-1-(4-Chloro-phenyl)-ethyl]-1-ethyl-ureidomethyl}-6-methoxy-4′-trifluoromethyl-biphenyl-3-yl)-acetic acid] | 
12 | < 6.00 |  | > 6.52 | CCN(Cc1cc(F)ccc1-c1cc(CC(=O)O)ccc1OC)C(C)=O [Compound 1-184, {2′-[(Acetyl-ethyl-amino)-methyl]-4′-fluoro-6-methoxy-biphenyl-3-yl}-acetic acid] | 
13 | < 6.00 |  | < 6.00 | O=C(O)Cc1ccc(F)c(-c2ccc(C(F)(F)F)cc2CN(CC(F)(F)F)C(=O)OCc2ccccc2)c1 [Compound 1-49, (2′-{[Benzyloxycarbonyl-(2,2,2-trifluoro-ethyl)-amino]-methyl)-6-fluoro-4′-trifluoromethyl-biphenyl-3-yl)-acetic acid] | 
14 | < 6.00 |  | > 6.52 | CCN(Cc1cc(F)ccc1-c1cc(CC(=O)O)ccc1OC)C(=O)NCc1ccccc1 [Compound 1-187, [2′-(3-Benzyl-1-ethyl-ureidomethyl)-4′-fluoro-6-methoxy-biphenyl-3-yl]-acetic acid] | 
15 | < 6.00 |  | > 6.52 | CCN(Cc1cc(C(F)(F)F)ccc1-c1cc(CC(=O)O)ccc1OC)C(=O)NCc1cccc(Cl)c1 [Compound 1-177, {2′-[3-(3-Chloro-benzyl)-1-ethyl-ureidomethyl}-6-methoxy-4′-trifluoromethyl-biphenyl-3-yl}-acetic acid] | 
16 | < 6.00 |  | > 6.52 | CCN(Cc1cc(C(F)(F)F)ccc1-c1cc(CC(=O)O)ccc1OC)C(=O)NCc1ccc(F)cc1 [Compound 1-176, {2′-[1-Ethyl-3-(4-fluoro-benzyl)-ureidomethyl]-6-methoxy-4′-trifluoromethyl-biphenyl-3-yl}-acetic acid] | 
17 | < 6.00 |  | > 6.52 | CCN(Cc1cc(NS(C)(=O)=O)ccc1-c1cc(CC(=O)O)ccc1OC)C(=O)OCc1ccccc1 [Compound 1-155, {2′-[(Benzyloxycarbonyl-ethyl-amino)-methyl]-4′-methanesulfonylamino-6-methoxy-biphenyl-3-yl}-acetic acid] | 
18 | < 6.00 |  | > 6.52 | CCN(Cc1cc(F)ccc1-c1cc(CC(=O)O)ccc1OC)C(=O)OCc1ccccc1 [Compound 1-183, {2′-[(Benzyloxycarbonyl-ethyl-amino)-methyl]-4′-fluoro-6-methoxy-biphenyl-3-yl}-acetic acid] | 

Row | SMILES | pIC50 (human DP1 receptor) | IC50 [1] [µM] | pIC50 (human DP2 receptor; [2]) | pIC50 (human DP2 receptor)
19 | CCN(Cc1cc(C(F)(F)F)ccc1-c1cc(CC(=O)O)ccc1OC)C(=O)C1CC1 [Compound 1-33, {2′-[(Cyclopropanecarbonyl-ethyl-amino)-methyl]-6-methoxy-4′-trifluoromethyl-biphenyl-3-yl}-acetic acid] | < 6.00 |  |  | > 6.52
